Laboratory results reported in publication PMC10562414, “GLP-1R signaling neighborhoods associate with the susceptibility to adverse drug reactions of incretin mimetics” (Nature Communications, 2023).

What was measured:
Format in all cases: cell-based
[1] = biological target: T1, GLP-1R (Homo sapiens, UniProt P43220); experiment: ebBRET pathway activation (15 pathways) at the Golgi apparatus (tdrGFP-Giantin); conditions: for Efficacy (normalized) / Potency (logEC50) / Emax: Golgi apparatus
[2] = biological target: T1, GLP-1R; experiment: ebBRET pathway activation (15 pathways) at early endosomes (rGFP-FYVE); conditions: for Efficacy (normalized) / Potency (logEC50) / Emax: Early endosomes
Procedure: Subcellular resolution was achieved by using organelle-specific energy acceptors for early endosomes, the Golgi apparatus and the endoplasmic reticulum.
Data are represented as the mean ± SEM (n = 3 biologically independent experiments). EE early endosomes, GA Golgi apparatus, ER endoplasmic reticulum.
HEK293 cells were cultured in DMEM supplemented with 10% FBS, 1% penicillin/streptomycin, propagated in plastic flasks and grown at 37 °C in 5% CO2 and 90% humidity. […] After a 48-hour incubation, cells were washed once with HBSS and maintained in the same buffer.
Best fit values were excluded if EC50 was outside of the concentration range tested or if the span was negative.
Pharmacological characterization of GLP-1R agonist signaling
profiles at early endosomes. a, Illustration depicting the ebBRET approach to monitoring
signaling at early endosomes. b, Concentration-response curves of GLP-1R agonists across 15
pathways at early endosomes using rGFP-F YVE. Data are represented by the non-linear fit and
scaled according to the highest responding drug (n=3 biologic ally independent samples).
Drug-s pecific polar area diagrams for efficacy (normalized to the highest responding drug) (c)
Drugs were deemed to activate
a given pathway after comparing the top and bottom parameters from non-linear regression by
Jaccard similarity index for efficacy (e) and potency (f) quantifies similarities and
differences across drug responses.
Drug- induced transducer engagement by GLP- 1R at early
endosomes. Agonist concentration response curves for 15 transducers at early endosomes.
Drugs were deemed to activate a given pathway after comparing the top and bottom parameters
from non-linear regression by one-sided extra sum-o f-s quares F-t est followed by Bonferroni
Data are represented as the mean ± SEM (n=3
biologically independent samples). Sigmoidal dose-r esponse curves are present for
responsive pathways and flat lines indicate non-r esponding pathway s.
Polar area diagrams depict pathway activation at early endosomes.
Pathway-specific polar area diagrams for efficacy (normalized to the highest responding drug) (a)
Drugs were deemed to activate a
given pathway after comparing the top and bottom parameters from non-linear regression by

[3] = biological target: T1, GLP-1R; experiment: ebBRET pathway activation (15 transducers), normalized efficacy and potency, Supplementary Fig. 11 (cellular compartment not given)

T1 sequence (P43220 24-463): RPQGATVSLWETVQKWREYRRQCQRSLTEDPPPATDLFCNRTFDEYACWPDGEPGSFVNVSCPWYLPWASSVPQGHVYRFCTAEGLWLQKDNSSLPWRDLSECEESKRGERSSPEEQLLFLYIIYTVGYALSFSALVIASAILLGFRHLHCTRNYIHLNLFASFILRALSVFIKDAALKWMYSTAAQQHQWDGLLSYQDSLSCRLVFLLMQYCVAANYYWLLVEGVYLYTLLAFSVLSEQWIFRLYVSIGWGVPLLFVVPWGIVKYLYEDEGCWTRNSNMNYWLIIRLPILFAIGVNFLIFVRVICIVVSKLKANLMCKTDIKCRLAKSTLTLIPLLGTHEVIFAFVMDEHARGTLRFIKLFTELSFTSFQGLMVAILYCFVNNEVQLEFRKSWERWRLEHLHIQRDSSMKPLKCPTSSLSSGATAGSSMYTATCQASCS

N#Cc1ccc(COc2cccc(C3CCN(Cc4nc5ccc(C(=O)O)cc5n4C[C@@H]4CCO4)CC3)n2)c(F)c1 [Danuglipron]
Efficacy (normalized) ([1]; GRK2/Gβγ): 0 | Potency (logEC50) ([1]; GRK2/Gβγ): 0 | Emax ([1]; GRK/Gβγ): 0 | Efficacy (normalized) ([1]; Gα11): 0 | Emax ([1]; Gα11): 0 | Potency (logEC50) ([1]; Gα11): 0 | Efficacy (normalized) ([1]; Gα12): 0 | Emax ([1]; Gα12): 0 | Potency (logEC50) ([1]; Gα12): 0 | Efficacy (normalized) ([1]; Gα13): 0 | Emax ([1]; Gα13): 0 | Potency (logEC50) ([1]; Gα13): 0 | Efficacy (normalized) ([1]; Gα14): 0 | Emax ([1]; Gα14): 0 | Potency (logEC50) ([1]; Gα14): 0 | Efficacy (normalized) ([1]; Gα15): 0 | Emax ([1]; Gα15): 0 | Potency (logEC50) ([1]; Gα15): 0 | Efficacy (normalized) ([1]; Gαi1): 0 | Emax ([1]; Gαi1): 0 | Potency (logEC50) ([1]; Gαi1): 0 | Efficacy (normalized) ([1]; Gαi2): 0 | Emax ([1]; Gαi2): 0 | Potency (logEC50) ([1]; Gαi2): 0 | Efficacy (normalized) ([1]; Gαi3): 0 | Emax ([1]; Gαi3): 0 | Potency (logEC50) ([1]; Gαi3): 0 | Efficacy (normalized) ([1]; GαoA): 0 | Emax ([1]; GαoA): 0 | Potency (logEC50) ([1]; GαoA): 0 | Efficacy (normalized) ([1]; GαoB): 0 | Emax ([1]; GαoB): 0 | Potency (logEC50) ([1]; GαoB): 0 | Efficacy (normalized) ([1]; Gαq): 0 | Emax ([1]; Gαq): 0 | Potency (logEC50) ([1]; Gαq): 0 | Efficacy (normalized) ([1]; Gαs): 0.8077 | Emax ([1]; Gαs): 0.9498 | Potency (logEC50) ([1]; Gαs): 0.7638 | Efficacy (normalized) ([1]; Gαz): 1 | Emax ([1]; Gαz): 0.06827 | Potency (logEC50) ([1]; Gαz): 0.517 | Emax ([1]; βARR): 0.7121 | Efficacy (normalized) ([1]; βARR2): 0.4942 | Potency (logEC50) ([1]; βARR2): 0.4339 | mGs recruitment at the Golgi apparatus, in words ([1]; Rluc8-mGs, tdrGFP-Giantin, 60 min, n = 3): induced a strong response at the Golgi apparatus | Efficacy (normalized) ([2]; GRK2/Gβγ): 0.507 | Potency (logEC50) ([2]; GRK2/Gβγ): 0.4671 | Efficacy (normalized) ([2]; Gα11): 0 | Emax ([2]; Gα11): 0 | Potency (logEC50) ([2]; Gα11): 0 | Efficacy (normalized) ([2]; Gα12): 0 | Emax ([2]; Gα12): 0 | Potency (logEC50) ([2]; Gα12): 0 | Efficacy (normalized) ([2]; Gα13): 0 | Emax ([2]; Gα13): 0 | Potency (logEC50) ([2]; Gα13): 0 | Efficacy (normalized) ([2]; Gα14): 0.9516 | Emax ([2]; Gα14): 0.02161 | Potency (logEC50) ([2]; Gα14): 0.7414 | Efficacy (normalized) ([2]; Gα15): 0 | Emax ([2]; Gα15): 0 | Potency (logEC50) ([2]; Gα15): 0 | Efficacy (normalized) ([2]; Gαi1): 0 | Emax ([2]; Gαi1): 0 | Potency (logEC50) ([2]; Gαi1): 0 | Efficacy (normalized) ([2]; Gαi2): 0 | Emax ([2]; Gαi2): 0 | Potency (logEC50) ([2]; Gαi2): 0 | Efficacy (normalized) ([2]; Gαi3): 0 | Emax ([2]; Gαi3): 0 | Potency (logEC50) ([2]; Gαi3): 0 | Efficacy (normalized) ([2]; GαoA): 0.4649 | Emax ([2]; GαoA): 0.009912 | Potency (logEC50) ([2]; GαoA): 0.573 | Efficacy (normalized) ([2]; GαoB): 0.7256 | Emax ([2]; GαoB): 0.03076 | Potency (logEC50) ([2]; GαoB): 0.2577 | Efficacy (normalized) ([2]; Gαq): 0 | Emax ([2]; Gαq): 0 | Potency (logEC50) ([2]; Gαq): 0 | Efficacy (normalized) ([2]; Gαs): 0 | Emax ([2]; Gαs): 0 | Potency (logEC50) ([2]; Gαs): 0 | Efficacy (normalized) ([2]; Gαz): 0.5189 | Emax ([2]; Gαz): 0.05365 | Potency (logEC50) ([2]; Gαz): 0.2291 | Efficacy (normalized) ([2]; βARR2): 0.458 | Potency (logEC50) ([2]; βARR2): 0.384 | Emax ([2]; GRK/Gβγ): 0.1194 | Emax ([2]; βARR): 0.07877 | mGs recruitment at early endosomes, in words ([2]; Rluc8-mGs, rGFP-FYVE, 60 min, n = 3): did not promote mGs recruitment at early endosomes at the concentrations tested | Efficacy (normalized), GRK2/Gβγ ([3]; Supplementary Fig. 11a, GRK2/Gβγ): 0.507 | Efficacy (normalized), Gα11 ([3]; Supplementary Fig. 11a, Gα11): 0 | Efficacy (normalized), Gα12 ([3]; Supplementary Fig. 11a, Gα12): 0 | Efficacy (normalized), Gα13 ([3]; Supplementary Fig. 11a, Gα13): 0 | Efficacy (normalized), Gα14 ([3]; Supplementary Fig. 11a, Gα14): 0.9516 | Efficacy (normalized), Gα15 ([3]; Supplementary Fig. 11a, Gα15): 0 | Efficacy (normalized), Gαi1 ([3]; Supplementary Fig. 11a, Gαi1): 0 | Efficacy (normalized), Gαi2 ([3]; Supplementary Fig. 11a, Gαi2): 0 | Efficacy (normalized), Gαi3 ([3]; Supplementary Fig. 11a, Gαi3): 0 | Efficacy (normalized), GαoA ([3]; Supplementary Fig. 11a, GαoA): 0.4649 | Efficacy (normalized), GαoB ([3]; Supplementary Fig. 11a, GαoB): 0.7256 | Efficacy (normalized), Gαq ([3]; Supplementary Fig. 11a, Gαq): 0 | Efficacy (normalized), Gαs ([3]; Supplementary Fig. 11a, Gαs): 0 | Efficacy (normalized), Gαz ([3]; Supplementary Fig. 11a, Gαz): 0.5189 | Efficacy (normalized), βARR2 ([3]; Supplementary Fig. 11a, βARR2): 0.458 | Potency (logEC50), Gα11 ([3]; Supplementary Fig. 11b, Gα11): 0 | Potency (logEC50), Gα12 ([3]; Supplementary Fig. 11b, Gα12): 0 | Potency (logEC50), Gα13 ([3]; Supplementary Fig. 11b, Gα13): 0 | Potency (logEC50), Gα14 ([3]; Supplementary Fig. 11b, Gα14): 0.7414 | Potency (logEC50), Gα15 ([3]; Supplementary Fig. 11b, Gα15): 0 | Potency (logEC50), Gαi1 ([3]; Supplementary Fig. 11b, Gαi1): 0 | Potency (logEC50), Gαi2 ([3]; Supplementary Fig. 11b, Gαi2): 0 | Potency (logEC50), Gαi3 ([3]; Supplementary Fig. 11b, Gαi3): 0 | Potency (logEC50), GαoA ([3]; Supplementary Fig. 11b, GαoA): 0.573 | Potency (logEC50), GαoB ([3]; Supplementary Fig. 11b, GαoB): 0.2577 | Potency (logEC50), Gαq ([3]; Supplementary Fig. 11b, Gαq): 0 | Potency (logEC50), Gαs ([3]; Supplementary Fig. 11b, Gαs): 0 | Potency (logEC50), Gαz ([3]; Supplementary Fig. 11b, Gαz): 0.2291 | Potency (logEC50), βARR2 ([3]; Supplementary Fig. 11b, βARR2): 0.384
